Legend:
[1] = tested on: C1R B lymphoblastoid line transduced with the Class I B27 allele; experiment: Class I expression on B27-transduced C1R B lymphoblastoid line, labeled W6/32 monoclonal antibody (FIG. 3); format: cell-based, human; conditions: for impact on Class I expression: other pharmacologic agents compared with 8-MOP
Procedure: In order to evaluate the enhanced immunogenicity of 8-MOP treated CTCL cells, a series of human lymphoblast lines was derived. The C1R B lymphoblastoid line, which in its native state expresses no HLA-A or HLA-B surface Class I and only a minute amount of HLA-C molecules was transduced with the Class I B27 allele. This modified cell population, with nearly all of its surface Class I molecules being B27, was exposed to 8MOP and incubated overnight.

[2] = tested on: Class I protein on the cell surface; experiment: Class I expression after 8-MOP/UVA, fluorescent antibody, mean fluorescence channel (FIG. 2); format: cell-based
Text: Mean fluorescence channel measurements permit the quantification of the amount of Class I protein on the cell surface, as identified with a fluorescent antibody against the Class I protein.

[3] = tested on: Class I molecules on transduced C1R B cells; experiment: Binding of iodinated B27 allele-specific peptide, immunoprecipitation with antibody 4E; format: cell-based, human; conditions: transduced C1R B cells exposed to 8-MOP
Procedure: To determine if the Class I MHC molecules induced in Example 5 remained functional, i.e., could be loaded with a known B27 allele-specific peptide, iodinated peptide was added under varied conditions.

[4] = tested on: human B lymphoblasts lacking the TAP genes or with TAP blocked by transduced ICP47; experiment: TAP dependence of the 8-MOP-induced Class I increase (FIG. 4); format: cell-based; conditions: B lymphoblasts that lacked the TAP genes or had them blocked by transduced ICP47 (both conditions)
Procedure: Next, it was determined that the 8-MOP-induced increase in surface Class I molecules is dependent on peptide transport across the endoplasmic reticulum through the transporter associated with […] (TAP) pores. […] The increased immunogenicity of 8MOP treated disease-effector cells was thus shown to involve the augmented catabolism of proteins, leading to the generation of small peptides that are then transported to Class I molecules in the endoplasmic reticulum and then on to the cell surface where they associate with the Class I molecules.

[5] = tested on: C1R human B lymphoblasts displaying B27 Class I complex; experiment: Class I MHC level of C1R cells incubated in various containers, cytofluorimeter (FIG. 5); format: cell-based; conditions: photoactivated 8-MOP in the 2410 bag (no leachable plasticizers), about 24 hours at 37° C.
Procedure: In the foregoing experiment, C1R human B lymphoblasts, cells molecularly engineered so that they display a readily studied B27 Class I protein complex, were exposed to photoactivated 8-MOP in the presence of various plastic containers. The mean fluorescence intensity was measured in a cytofluorimeter, using monoclonal antibodies specific for the B27 Class I complex.

## TNF-α
[1]
  impact on Class I expression: either no or a more limited impact

## γ-interferon: other pharmacologic agent compared with 8-MOP
[1]
  impact on Class I expression: either no or a more limited impact

## COc1c2occc2cc2ccc(=O)oc12 [8-MOP, 8-methoxypsoralen]
[2]; 1 joule per cm^2 of UVA and 200 ng/ml of 8-MOP, incubation about 18 hours, versus control cells
  Class I molecule expression: about doubles
[1]; UVA administered before the addition of 8-MOP, drug not photoactivated
  Class I expression: only a minor increase
[1]; optimal levels of 8-MOP
  time to peak levels of Class I expression after exposure: 20 h
[1]; photoactivated 8-MOP, optimal levels, overnight incubation
  increase of Class I expression over background: approximately 3 fold
[3]
  allele-specific peptide bound versus untreated cell line control: approximately 3 fold
  increase in functional Class I molecules per cell: > 10,000 functional Class I molecules per cell
[4]
  8-MOP induced increase in Class I molecules: prevented
[5]
  Class I MHC level versus untreated controls: more than doubled

## CC[C@H]1CN2CCc3cc(OC)c(OC)cc3[C@@H]2C[C@@H]1C[C@H]1NCCc2cc(OC)c(OC)cc21 [emetine]
[2]; emetine added to 8-MOP/UVA treated cells
  effect on the 8-MOP/UVA-induced increase in Class I expression: prevented

## CO[C@@]12[C@H](COC(N)=O)C3=C(C(=O)C(C)=C(N)C3=O)N1C[C@@H]1N[C@@H]12 [mytomycin C]
[1]
  impact on Class I expression: either no or a more limited impact
